Laboratory results taken from patent US8207189B2, “Compound having affinity for amyloid” (Nihon Medi-Physics Co., Ltd., priority 2007, dated 2012).

Key:
[1] = tested on: amyloid (aggregated Aβ1-42) injected into amygdaloid nucleus; assay: confirmation of imaging of amyloid in brain (autoradiogram, Aβ1-42 injected rats); type: in vivo, rat; settings: brain slice 60 minutes after intravenous injection
Method: (§1) (1) Aβ1-42 (manufactured by Wako) was dissolved in phosphate buffer (pH 7.4) and shaken at 37° C. for 72 hours, to obtain a 1 mg/mL suspension of aggregated Aβ (hereinafter referred to as amyloid suspension in the Examples).
(§2) (2) 2.5 μL (corresponding to […]) of the amyloid suspension was injected into an amygdaloid nucleus on one side of a male Wistar rat (7-week old). As a control, 2.5 μL of a phosphate buffered physiological saline solution (pH 7.4) was injected into an amygdaloid nucleus on the other side of the rat. The rats were examined 1 day after the injection of the amyloid suspension and the phosphate buffered physiological saline solution (pH 7.4).
(§3) (3) Compound 1 was dissolved in a 10 mg/mL ascorbic acid-containing physiological saline solution to obtain a sample solution (22 MBq/mL in radioactivity concentration in the sample solution). This solution was injected under thiopental anesthesia into the rat through the tail vein (dosage: 0.5 mL, dosed radioactivity: 11-13 MBq equivalent).
(§4) (4) Brain was removed 60 minutes after the injection to prepare a brain slice of 10 μm in thickness with a microtome (type: CM3050S, manufactured by LEICA). The brain slice was exposed to an imaging plate for 20 hours, and then image analysis was carried out by use of a Bio-imaging Analyzer (type: BAS-2500; manufactured by FUJIFILM Corporation).
(§5) Thus, it was confirmed that amyloid was deposited on the slice (FIG. 6b).
(§6) The same procedures as in Example 12 were performed except using a solution of Compound 2 in a 10 mg/mL ascorbic acid as a sample solution (the radioactive concentration of the sample solution was 25 MBq/mL).
(§7) (1) Aβ1-42 (manufactured by Wako) was dissolved in phosphate buffer (pH 7.4) and shaken at 37° C. for 72 hours, to obtain 1 mg/mL of a suspension of aggregated Aβ (hereinafter referred to as amyloid suspension in the Examples).
(§8) (3) A sample solution (30 MBq/mL in radioactivity concentration, Example 24) in which Compound 4 was dissolved in a 10 mg/mL ascorbic acid-containing physiological saline solution and a sample solution (30 MBq/mL in radioactivity concentration, Example 25) in which Compound 6 was dissolved in a 10 mg/mL ascorbic acid-containing physiological saline solution were prepared. This solution was injected under thiopental anesthesia into the rat through the tail vein (dosage: 0.5 mL, dosed radioactivity: 11-15 MBq equivalent).
(§9) Thus, it was confirmed that amyloid was deposited on the slice (FIG. 12 and FIG. 13).

[2] = target: T1, amyloid (aggregated Aβ1-42) injected into amygdaloid nucleus (Homo sapiens, UniProt P05067); assay: as above; type: in vivo, rat; settings: brain slice 60 minutes after intravenous injection, Aβ1-42
T1 construct: Aβ1-42 (manufactured by Wako) was dissolved in phosphate buffer (pH 7.4); purchased Wako
T1 sequence (P05067 672-713): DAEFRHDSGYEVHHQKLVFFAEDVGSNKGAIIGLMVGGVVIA
Method: as §1, §2, §3, §4, §5, §6, §7, §8, §9

[3] = transferability into brain and clearance after intravenous injection; type: in vivo, rat; settings: for Radioactive distribution per unit weight in brain, After 2 min. / Radioactive distribution per unit weight in brain, After 5 min. / Radioactive distribution per unit weight in brain, After 30 min. / Radioactive distribution per unit weight in brain, After 60 min.: male Wistar rats, intravenous injection; for radioactive accumulation in brain two minutes after the injection (in words) / clearance from brain in 60 minutes (in words): rats, intravenous; for Radioactive distribution per unit weight in brain, After 2 min. / radioactive accumulation in brain two minutes after the injection (in words): 2 min
Method: Using Compound 1 (Example 10) and Compound 2 (Example 11), a time course change of radioactive accumulation in brain of male Wistar rats (7-week old) was measured.
A diethyl ether solution of Compound 1 (Example 10) prepared in Example 3, a diethyl ether solution of Compound 2 (Example 11) prepared in Example 6 and a diethyl ether solution of [^123I]-IMPY (Comparative Example 5) prepared in Reference Example 1 were each diluted with 10 mg/mL ascorbic acid-containing physiological saline solution to adjust to a radioactive concentration of 8-12 MBq/mL. 0.05 mL each of the prepared sample solutions was injected under thiopental anesthesia into the tail vein of the rats. The rats were sacrificed by bleeding from abdominal artery, and brains were removed and subjected to measurement of mass of brains and further subjected to measurement of radioactivity (hereinafter referred to as A in this Example) with a single channel analyzer (detector type: SP-20 manufactured by OHYO KOKEN KOGYO Co., Ltd.) 2, 5, 30 and 60 minutes after the injection. Further, the radioactivity level of the rest of the whole body was measured in the same manner as above (hereinafter referred to as B in this Example). Using these measurement results, radioactive distribution per unit weight of brain (% ID/g) at the respective time points were calculated in accordance with the following formula (3).
Three animals were used for the experiment at the respective time points.
Using Compound 4 and Compound 6, a time course change of radioactive accumulation in brain of male Wistar rats (7-week old) was measured.
Compound 4 (Example 22), Compound 6 (Example 23) and a solution of [^123I]-IMPY (Comparative Example 8) prepared above in Reference Example 1 were each diluted with a 10 mg/mL ascorbic acid-containing physiological saline solution to prepare solutions (20-31 MBq/mL in radioactive concentration). 0.05 mL each of the prepared sample solutions was injected under thiopental anesthesia into the tail vein of the respective Wistar rat (7-week old). The rats were sacrificed by bleeding from abdominal artery, and brains were removed and subjected to measurement of mass of brains and further subjected to measurement of radioactivity (hereinafter referred to as A in this Example) with a single channel analyzer (detector type: SP-20 manufactured by OHYO KOKEN KOGYO Co., Ltd.) 2, 5, 30 and 60 minutes after the injection. Further, the radioactivity level of the rest of the whole body was measured in the same manner as above (hereinafter referred to as B in this Example). Using these measurement results, radioactive distribution per unit weight of brain (% ID/g) at the respective time points were calculated in accordance with the following formula (5).

[4] = partition coefficient based on the octanol extraction method; type: physicochemical; settings: octanol / 10 mmol/L phosphate buffer pH 7.4
Method: Partition coefficients based on the octanol extraction method (hereinafter referred to as log Poctanol) were measured, which are generally known as an indicator of permeability of compounds through the blood-brain barrier (hereinafter referred to as BBB).
A diethyl ether solution of Compound 1 prepared in Example 3 (Example 8), a diethyl ether solution of Compound 2 prepared in Example 6 (Example 9), and a diethyl ether solution of [^123I]-IMPY prepared in Reference Example 1 (Comparative Example 4) were each diluted with 10 mg/mL ascorbic acid-containing physiological saline solution, and adjusted to a radioactive concentration of 20-30 MBq/mL. To 2 mL of octanol, 10 μL each of the prepared sample solutions was added, 2 mL of 10 mmol/L phosphate buffer (pH 7.4) was added, followed by stirring for 30 seconds. After the mixture was centrifuged with a low-speed centrifuge (2000 rpm×60 min.), the octanol layer and the water layer were sampled each in an amount of 1 mL, and subjected to measurement of radioactivity count with an autowell gamma system (Type: ARC-301B, manufactured by Aloka). Using the obtained radioactivity count, log Poctanol was calculated in accordance with the equation (2).
A diethyl ether solution (Example 20) of Compound 4 prepared in Example 16, a diethyl ether solution (Example 21) of Compound 6 prepared in Example 19, and a diethyl ether solution (Comparative Example 7) of [^123I]-IMPY were each diluted with a 10 mg/mL ascorbic acid-containing physiological saline solution to adjust to a radioactive concentration of 20-30 MBq/mL. To 2 mL of octanol, 10 μL each of the prepared sample solution was added, and 2 mL of 10 mmol/L phosphate buffer (pH 7.4) was further added, followed by stirring for 30 seconds. After the mixture was centrifuged with a low-speed centrifuge (2000 rpm×60 min.), the octanol layer and the water layer were sampled each in an amount of 1 mL, and subjected to measurement of radioactivity count with an autowell gamma system (Type: ARC-301B, manufactured by Aloka). Using the obtained radioactivity count, log Poctanol was calculated in accordance with the equation (4).

[5] = WO03/106439; cited from earlier work
[6] = rats, [11C]-labeled; cited from earlier work
[7] = target: T2, amyloid (aggregated Aβ1-40) injected into amygdaloid nucleus (Homo sapiens, UniProt P05067); assay: ex vivo autoradiogram using rats of amyloid injected model (Aβ1-40); type: in vivo, rat; settings: brain slice 60 minutes after intravenous injection, Aβ1-40
T2 construct: Aβ1-40 (manufactured by Peptide Institute, INC.) was dissolved in phosphate buffer (pH 7.4); purchased Peptide Institute, INC
T2 sequence (P05067 672-711): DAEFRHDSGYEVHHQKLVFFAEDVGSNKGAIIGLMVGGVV
Method: (§10) (1) Aβ1-40 (manufactured by Peptide Institute, INC.) was dissolved in phosphate buffer (pH 7.4) and shaken at 37° C. for 72 hours, to obtain a 1 mg/mL suspension of aggregated Aβ (hereinafter referred to as amyloid suspension in this Example).
as §2
as §3, with “[^123I]-IMPY” for “Compound 1”, “(29” for “(22”, “14.5” for “11-13”
as §4, with “Corporation). […]” for “Corporation).”

[8] = tested on: amyloid (aggregated Aβ1-40) injected into amygdaloid nucleus; assay: as above; type: in vivo, rat; settings: brain slice 60 minutes after intravenous injection
Method: as §10, §2
as §3, with “[^123I]-IMPY” for “Compound 1”, “(29” for “(22”, “14.5” for “11-13”
as §4, with “Corporation). […]” for “Corporation).”

[9] = Table 6 (Examples 20-21, Comparative Example 7)
[10] = Table 4 (Examples 8-9, Comparative Example 4)

Compound | accumulation of radioactivity at sites other than the amyloid injected sites [1] | accumulation of radioactivity in amygdaloid nucleus on the physiological saline-injected side [1] | accumulation of radioactivity in amygdaloid nucleus on the amyloid-injected side [2] | Radioactive distribution per unit weight in brain, After 2 min. ([3]; Table 7) [% ID/g] | Radioactive distribution per unit weight in brain, After 5 min. ([3]; Table 7) [% ID/g] | Radioactive distribution per unit weight in brain, After 30 min. ([3]; Table 7) [% ID/g] | Radioactive distribution per unit weight in brain, After 60 min. ([3]; Table 7) [% ID/g] | radioactive accumulation in brain two minutes after the injection (in words) [3] | clearance from brain in 60 minutes (in words) [3] | logPoctanol value [4, 9] | further results
2-[3′-(2″-hydroxyethoxy)phenyl]-6-[^123I]iodoimidazo[1,2-a]pyridine [Compound 4] | little accumulation of radioactivity | no significant accumulation of radioactivity | marked accumulation of radioactivity | 0.56 | 0.28 | 0.04 | 0.01 | significant accumulation | rapidly clear away | 2.5 | 
2-[4′-(2″-hydroxyethoxy)phenyl]-6-[^123I]iodoimidazo[1,2-a]pyridine [Compound 1] | little radioactive accumulation | no significant accumulation of radioactivity | marked accumulation of radioactivity |  |  |  |  | significant radioactive accumulation | rapidly clear away |  | Radioactive distribution per unit weight in brain, After 2 min. ([3]; Table 5): 0.90 % ID/g; Radioactive distribution per unit weight in brain, After 5 min. ([3]; Table 5): 0.52 % ID/g; Radioactive distribution per unit weight in brain, After 30 min. ([3]; Table 5): 0.06 % ID/g; Radioactive distribution per unit weight in brain, After 60 min. ([3]; Table 5): 0.01 % ID/g; logPoctanol value [4, 10]: 1.8
2-[4′-(3″-hydroxypropoxy)phenyl]-6-[^123I]iodoimidazo[1,2-a]pyridine [Compound 6] | little accumulation of radioactivity | no significant accumulation of radioactivity | marked accumulation of radioactivity | 0.81 | 0.56 | 0.07 | 0.02 | significant accumulation | rapidly clear away | 2.1 | 
CC(=C(C#N)C#N)c1ccc2cc(N(C)CCF)ccc2c1 [FDDNP, 2-(1-{6-[(2-fluoroethyl)(methyl)amino]-2-naphthyl}ethylidene)malononitrile] |  |  |  |  |  |  |  |  |  |  | reverse mutation test result [5]: positive
CN(C)c1ccc(-c2cn3cc(I)ccc3n2)cc1 [IMPY, 6-iodo-2-[4′-(N,N-dimethylamino)phenyl]imidazo[1,2-a]pyridine] |  |  |  |  |  |  |  |  |  |  | reverse mutation test result [5]: positive
CNc1ccc(/C=C/c2ccc(O)cc2)cc1 [SB-13, (E)-4-methylamino-4′-hydroxystilbene] |  |  |  |  |  |  |  |  |  |  | clearance from normal tissues [6]: it cannot be said that the clearance is sufficiently fast
CN(C)c1ccc(-c2cn3cc([123I])ccc3n2)cc1 [[^123I]-IMPY, reference compound] |  |  |  | 1.19 | 0.97 | 0.23 | 0.09 |  |  | 2.1 | accumulation of radioactivity in amygdaloid nucleus on the amyloid-injected side [7]: marked accumulation of radioactivity; accumulation in white matter where amyloid was not injected [8]: non-specific accumulation was observed; Radioactive distribution per unit weight in brain, After 2 min. ([3]; Table 5): 1.19 % ID/g; Radioactive distribution per unit weight in brain, After 5 min. ([3]; Table 5): 0.97 % ID/g; Radioactive distribution per unit weight in brain, After 30 min. ([3]; Table 5): 0.23 % ID/g; Radioactive distribution per unit weight in brain, After 60 min. ([3]; Table 5): 0.09 % ID/g; logPoctanol value [4, 10]: 1.9
